According to publication PMC5143673 (Innate immunity, 2016):
Non-standard residues stand in square brackets, D forms with d. No end group written: not given here. hCit = NC(=O)NCCCC[C@H](N)C(=O)O

What was measured:
[1] = target: N-HisTag containing ApoA1 (NH-ApoA1) (UniProt P02647); test: SPR
Chain of UniProt P02647 (P02647 19-267): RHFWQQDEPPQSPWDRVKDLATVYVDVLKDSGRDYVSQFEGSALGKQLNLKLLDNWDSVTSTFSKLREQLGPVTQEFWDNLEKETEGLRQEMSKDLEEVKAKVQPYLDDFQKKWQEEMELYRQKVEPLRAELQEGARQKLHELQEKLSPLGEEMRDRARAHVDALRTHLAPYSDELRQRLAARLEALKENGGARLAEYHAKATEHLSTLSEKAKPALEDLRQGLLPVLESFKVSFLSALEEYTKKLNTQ

Q: For “LLGDFFRKSKEKIGKEFKRIVQRIKDFLRNLVPRTES [LL-37]”, which “capacity to lyse neutrophils and erythrocytes” value (neutrophils) is on record?
A: ability of LL-37^C8 and LL-37^C12,15 to lyse neutrophils and erythrocytes was different

B1: LL-37^C12,15 (LL-37 carbamylated on Lys-12 and Lys-15) (peptide)
peptide: LLGDFFRKSKE[hCit]IG[hCit]EFKRIVQRIKDFLRNLVPRTES
Q: B1 was tested. Which fold lower affinity than native LL-37 [1] did it give?
A: 3 fold
